Measurements from PubChem BioAssay AID1963831 (Molecular Pharmacology Branch, DTP, NCI, 2024).

Tested on: 889142-216-R-J1-PDC complex spheroid viability
Experiment: Anticancer human tumor 889142-216-R-J1-PDC patient-derived bladder carcinoma cell line growth inhibition [POLQ]
Details: for IC50: curve of first compound; for viability, T/C: stronger effect = lower value
Procedure, shortened: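 Growth inhibition in 3D: complex spheroids (tumor PDC, HUVEC, MSC) treated with POLQ inhibitor combinations; where Cmax unknown, highest tested concentration 10 microM, except SN-38 at 1 microM.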

[1] = second compound 0.0316 µM, first compound 0.0316 µM
[2] = second compound 0.0316 µM, first compound 0.1 µM
[3] = second compound 0.0316 µM, first compound 0.316 µM
[4] = second compound 0.0316 µM, first compound 1 µM
[5] = second compound 0.0316 µM, first compound 3.16 µM
[6] = second compound 0.0316 µM, first compound 10 µM
[7] = second compound 0.1 µM, first compound 0.0316 µM
[8] = second compound 0.1 µM, first compound 0.1 µM
[9] = second compound 0.1 µM, first compound 0.316 µM
[10] = second compound 0.1 µM, first compound 1 µM
[11] = second compound 0.1 µM, first compound 3.16 µM
[12] = second compound 0.1 µM, first compound 10 µM
[13] = second compound 0.316 µM, first compound 0.0316 µM
[14] = second compound 0.316 µM, first compound 0.1 µM
[15] = second compound 0.316 µM, first compound 0.316 µM
[16] = second compound 0.316 µM, first compound 1 µM
[17] = second compound 0.316 µM, first compound 3.16 µM
[18] = second compound 0.316 µM, first compound 10 µM
[19] = second compound 1 µM, first compound 0.0316 µM
[20] = second compound 1 µM, first compound 0.1 µM
[21] = second compound 1 µM, first compound 0.316 µM
[22] = second compound 1 µM, first compound 1 µM
[23] = second compound 1 µM, first compound 3.16 µM
[24] = second compound 1 µM, first compound 10 µM
[25] = second compound 3.16 µM, first compound 0.0316 µM
[26] = second compound 3.16 µM, first compound 0.1 µM
[27] = second compound 3.16 µM, first compound 0.316 µM
[28] = second compound 3.16 µM, first compound 1 µM
[29] = second compound 3.16 µM, first compound 3.16 µM
[30] = second compound 3.16 µM, first compound 10 µM
[31] = second compound 10 µM, first compound 0.0316 µM
[32] = second compound 10 µM, first compound 0.1 µM
[33] = second compound 10 µM, first compound 0.316 µM
[34] = second compound 10 µM, first compound 1 µM
[35] = second compound 10 µM, first compound 3.16 µM
[36] = second compound 10 µM, first compound 10 µM
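Note: spheroids exposed to compounds for seven days.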
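Throughout, for viability, T/C: 100% = DMSO vehicle control viability.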

## COc1cccc2c1C(=O)c1c(O)c3c(c(O)c1C2=O)CC(O)(C(=O)CO)CC3OC1CC(N)C(O)C(C)O1 (stereo not drawn) + Cc1cccc(N(C)C(=O)C2C(O)CCN2c2nc(C)cc(C(F)(F)F)c2C#N)c1
Second compound 0.0316 µM
  IC50: 0.244 µM
Second compound 0.1 µM
  IC50: 0.148 µM
Second compound 0.316 µM
  IC50: 0.15 µM
Second compound 1 µM
  IC50: 0.196 µM
Second compound 3.16 µM
  IC50: 0.183 µM
Second compound 10 µM
  IC50: 0.135 µM
[1]
  viability, T/C: 70.9%
[2]
  viability, T/C: 69.3%
[3]
  viability, T/C: 44.2%
[4]
  viability, T/C: 2.17%
[5]
  viability, T/C: 0.48%
[6]
  viability, T/C: 1.56%
[7]
  viability, T/C: 77%
[8]
  viability, T/C: 56.6%
[9]
  viability, T/C: 34.7%
[10]
  viability, T/C: 2.14%
[11]
  viability, T/C: 1.04%
[12]
  viability, T/C: 1.26%
[13]
  viability, T/C: 57.3%
[14]
  viability, T/C: 59.7%
[15]
  viability, T/C: 35.2%
[16]
  viability, T/C: 4.5%
[17]
  viability, T/C: 0.81%
[18]
  viability, T/C: 0.94%
[19]
  viability, T/C: 58.9%
[20]
  viability, T/C: 78%
[21]
  viability, T/C: 37%
[22]
  viability, T/C: 2.29%
[23]
  viability, T/C: 1.29%
[24]
  viability, T/C: 1.22%
[25]
  viability, T/C: 61.8%
[26]
  viability, T/C: 69%
[27]
  viability, T/C: 36.2%
[28]
  viability, T/C: 1.55%
[29]
  viability, T/C: 1.05%
[30]
  viability, T/C: 0.85%
[31]
  viability, T/C: 55.7%
[32]
  viability, T/C: 62.4%
[33]
  viability, T/C: 24.7%
[34]
  viability, T/C: 0.91%
[35]
  viability, T/C: 0.87%
[36]
  viability, T/C: 1.31%

## COc1cc2cc(C(=O)CCC(=O)O)sc2cc1OC + Nc1ccc(C#CCN(C(=O)Cc2ncc(C(F)(F)F)cc2C(F)(F)F)c2ccc(F)cc2)nn1
Second compound 0.0316 µM
  IC50: > 10 µM
Second compound 0.1 µM
  IC50: > 10 µM
Second compound 0.316 µM
  IC50: > 10 µM
Second compound 1 µM
  IC50: > 10 µM
Second compound 3.16 µM
  IC50: > 10 µM
Second compound 10 µM
  IC50: > 10 µM
[1]
  viability, T/C: 88.3%
[2]
  viability, T/C: 108%
[3]
  viability, T/C: 96.6%
[4]
  viability, T/C: 92.9%
[5]
  viability, T/C: 108%
[6]
  viability, T/C: 61.9%
[7]
  viability, T/C: 108%
[8]
  viability, T/C: 89%
[9]
  viability, T/C: 82.7%
[10]
  viability, T/C: 115%
[11]
  viability, T/C: 81.9%
[12]
  viability, T/C: 79.2%
[13]
  viability, T/C: 91.7%
[14]
  viability, T/C: 86.5%
[15]
  viability, T/C: 94%
[16]
  viability, T/C: 117%
[17]
  viability, T/C: 78.2%
[18]
  viability, T/C: 78.5%
[19]
  viability, T/C: 82.5%
[20]
  viability, T/C: 96.3%
[21]
  viability, T/C: 93%
[22]
  viability, T/C: 89.5%
[23]
  viability, T/C: 93.3%
[24]
  viability, T/C: 68.2%
[25]
  viability, T/C: 108%
[26]
  viability, T/C: 83.6%
[27]
  viability, T/C: 91.1%
[28]
  viability, T/C: 71.7%
[29]
  viability, T/C: 87.2%
[30]
  viability, T/C: 76.8%
[31]
  viability, T/C: 90.5%
[32]
  viability, T/C: 79%
[33]
  viability, T/C: 93.7%
[34]
  viability, T/C: 101%
[35]
  viability, T/C: 100%
[36]
  viability, T/C: 89.4%

## O=c1[nH]cc(F)c(=O)[nH]1 + COC1C(OC(N)=O)C(O)C(Oc2ccc3c(O)c(NC(=O)c4ccc(O)c(CC=C(C)C)c4)c(=O)oc3c2C)OC1(C)C
Second compound 0.0316 µM
  IC50: > 10 µM
Second compound 0.1 µM
  IC50: > 10 µM
Second compound 0.316 µM
  IC50: > 10 µM
Second compound 1 µM
  IC50: > 10 µM
Second compound 3.16 µM
  IC50: > 10 µM
Second compound 10 µM
  IC50: > 10 µM
[1]
  viability, T/C: 98.8%
[2]
  viability, T/C: 99.2%
[3]
  viability, T/C: 94.5%
[4]
  viability, T/C: 75%
[5]
  viability, T/C: 74%
[6]
  viability, T/C: 70.6%
[7]
  viability, T/C: 121%
[8]
  viability, T/C: 107%
[9]
  viability, T/C: 75.3%
[10]
  viability, T/C: 67.2%
[11]
  viability, T/C: 75.2%
[12]
  viability, T/C: 77.5%
[13]
  viability, T/C: 112%
[14]
  viability, T/C: 113%
[15]
  viability, T/C: 95.1%
[16]
  viability, T/C: 83.6%
[17]
  viability, T/C: 85.8%
[18]
  viability, T/C: 72.6%
[19]
  viability, T/C: 106%
[20]
  viability, T/C: 123%
[21]
  viability, T/C: 92.5%
[22]
  viability, T/C: 78.8%
[23]
  viability, T/C: 77.6%
[24]
  viability, T/C: 67.8%
[25]
  viability, T/C: 112%
[26]
  viability, T/C: 90.2%
[27]
  viability, T/C: 73.3%
[28]
  viability, T/C: 79.3%
[29]
  viability, T/C: 78.9%
[30]
  viability, T/C: 78%
[31]
  viability, T/C: 90.5%
[32]
  viability, T/C: 103%
[33]
  viability, T/C: 87.8%
[34]
  viability, T/C: 89.7%
[35]
  viability, T/C: 70.5%
[36]
  viability, T/C: 69.8%

## CCc1cc2c(N3CCc4c(cc(Cn5ccnc5)cc4-c4cn(C)nc4C(F)(F)F)C3=O)ccnc2c(OC)n1 + Cc1cccc(N(C)C(=O)C2C(O)CCN2c2nc(C)cc(C(F)(F)F)c2C#N)c1
Second compound 0.0316 µM
  IC50: > 10 µM
Second compound 0.1 µM
  IC50: > 10 µM
Second compound 0.316 µM
  IC50: > 10 µM
Second compound 1 µM
  IC50: > 10 µM
Second compound 3.16 µM
  IC50: > 10 µM
Second compound 10 µM
  IC50: > 10 µM
[1]
  viability, T/C: 110%
[2]
  viability, T/C: 98.7%
[3]
  viability, T/C: 121%
[4]
  viability, T/C: 125%
[5]
  viability, T/C: 127%
[6]
  viability, T/C: 103%
[7]
  viability, T/C: 95.2%
[8]
  viability, T/C: 116%
[9]
  viability, T/C: 120%
[10]
  viability, T/C: 123%
[11]
  viability, T/C: 102%
[12]
  viability, T/C: 87.3%
[13]
  viability, T/C: 116%
[14]
  viability, T/C: 115%
[15]
  viability, T/C: 130%
[16]
  viability, T/C: 140%
[17]
  viability, T/C: 132%
[18]
  viability, T/C: 76.8%
[19]
  viability, T/C: 93%
[20]
  viability, T/C: 85.7%
[21]
  viability, T/C: 148%
[22]
  viability, T/C: 122%
[23]
  viability, T/C: 127%
[24]
  viability, T/C: 74.5%
[25]
  viability, T/C: 85.3%
[26]
  viability, T/C: 107%
[27]
  viability, T/C: 128%
[28]
  viability, T/C: 115%
[29]
  viability, T/C: 109%
[30]
  viability, T/C: 75.8%
[31]
  viability, T/C: 86.5%
[32]
  viability, T/C: 88%
[33]
  viability, T/C: 102%
[34]
  viability, T/C: 87.6%
[35]
  viability, T/C: 92.9%
[36]
  viability, T/C: 74.3%
